A short description of the assay: biochemical assays (not further specified). To be noted: compound coupled from the second-peak acid 5-4 (RT=21 min).

On to `O=C(NCc1cc(C(F)(F)F)ccn1)[C@](O)(c1ccccc1)C(F)(F)C(F)(F)F` [Example 7, (2R)-3,3,4,4,4-Pentafluoro-2-hydroxy-2-phenyl-N-(4-trifluoromethyl-pyridin-2-ylmethyl)-butyramide], for which the “activity in the biochemical assays” value is “active”.

Values taken from patent US20090275515A1, “2-HYDROXY-2-PHENYLTHIOPHENYLPROPIONAMIDES AS ANDROGEN RECEPTOR MODULATORS” (priority 2006, published 2009).
